Legend:
[1] = test system: APP, Tau, αSYN and inflammatory markers in CSF; assay: MCI subjects proof of mechanism study, CSF markers before and after 10 days; format: in vivo, human
Description: (§1) Three Phase I clinical studies have established butanetap's safety. […] Therefore, we conclude that a much lower single daily butanetap dose would be effective in the proposed study.

[2] = test system: αSYN; format: in vivo, mice; conditions: 50 and 65 mg/kg for 21 days, FIG. 6
[3] = test system: aSYN in SH-SY-5Y human neuroblastoma cells; assay: alpha-synuclein in vitro, Western blot; format: cell-based; conditions: 0, 0.1, 1, 5 and 10 μM, FIG. 5
Procedure: (§2) • A. FIG. 5, alpha-synuclein in vitro. […] On the left is a Western blot showing butanetap inhibition of aSYN in relation to Actin standard at concentrations of 0, 0.1, 1, 5 and 10 μM and on the right a graph showing the same data plotted for statistical analysis purposes. • B. FIG. 6, alpha-synuclein brain in vivo. […] The animals were only treated for 2 weeks, so in brain it takes butanetap only 2 weeks to lower levels of alpha-synuclein. • C. FIG. 7, alpha-synuclein in gut in vivo. Gut levels of aSYN following treatment of PD A53T mice with 10 mg/kg for 21 weeks and 21 days reduced αSYN levels in the gut as shown by Western Blot.

[4] = test system: human SNCAA53T tg mouse model of PD; conditions: SNCAA53T tg mice; cited from earlier work
[5] = test system: Immortalized Mouse Astrocytes—SV40T (IMA2.1); assay: Gingipain cytotoxicity on astrocytes, AlamarBlue viability; format: cell-based; conditions: retest at much lower concentrations, 1 nM, FIG. 10
Procedure: (§3) Immortalized Mouse Astrocytes—SV40T (IMA2.1), immortalized Mouse Microglia (SIM-A9) and immortalized neuroblastoma (SH-SY5Y) cells were infected for 48 hours with gingipains HRgpA and RgpB (arginine gingipains), and Kgp (lysine-specific cysteine proteinase—Lys-gingipain, KGP). After 48 hours the cells were assessed for viability with the AlamarBlue assay and the percentage of dead or alive cells versus control was plotted. […] As expected, since neither are dying, […]. […] Therefore, we expect the efficacious buntanetap dose to fight P. gingivalis infection to be the same as to treat Alzheimer's and Parkinson's disease has no impact on the microglia or neuroblastoma survival in the presence of gingipains.
FIG. 10 show the results of retesting of the gingipain effect on astroglia at much lower concentrations.

[6] = Plasma and brain levels in mice by dose; format: in vivo
Description: The doses are provided in mg/kg; mg dose for a 70 kg human; plasma levels in mice and humans (ng/ml); plasma levels in humans (nM); brain levels in mice and humans (ng/gram); oral human efficacious and safe dose (mg/day); IP/P human efficacious and safe dose (mg/day); and IV human efficacious and safe dose (mg/day).

[7] = test system: alpha-synuclein; assay: alpha-synuclein in gut in vivo, PD A53T mice, Western blot
Procedure: as §2

[8] = test system: APP, Tau, αSYN and inflammatory markers in CSF; conditions: MCI subjects, cited from earlier work
[9] = test system: rat acute glaucoma model; assay: Acute glaucoma model; format: in vivo
Description: Butanetap's efficacy in treating neurodegeneration in animal models: Restored memory and learning in an APP/PS1 transgenic (tg) mouse model of AD; Restored memory and learning in a Ts65dn mouse model of Down syndrome (DS) [W. Mobley, UCSD, submitted 2020]; Preserved the retina in acute glaucoma [J Sundstrom; Hershey Medical School]; Restored colonic motility in a human SNCAA53T tg mouse model of PD (Kuo et. al., Am J Neurodegener Dis 2019; 8(1):1-15 www.AJND.us/ISSN:216 591X/AJND0086080: Translational inhibition of α-synuclein by Butanetap (Posiphen) normalizes distal colon motility in transgenic Parkinson mice); Preserved memory and learning in traumatic brain injury rats (M-F Chesselet, submitted 2020).
(§4) Butanetap's reversal of the neurotoxic cascade: Butanetap's mechanism of action is related to APP, Tau, and aSYN expression being regulated by RP1 and by iron and the way these proteins contribute to neurodegeneration by accumulating as toxic aggregates that impair axonal transport and synaptic transmission, causing inflammation, and, finally, leading to nerve cell death (as described previously).

[10] = test system: fully differentiated Down syndrome nerve cells; assay: Vesicle transport in Down syndrome nerve cells; format: cell-based
Description: as §4

[11] = Phase 1 single and multiple ascending dose safety, tolerance, pharmacokinetic studies in healthy volunteers; format: in vivo, human; conditions: Phase I pharmacokinetic analyses
Description: as §1

[12] = biological target: APP or aSYN mRNA to IRP1 (Homo sapiens, UniProt P21399); assay: Binding of mRNA IRE to IRP1
APP or aSYN mRNA to IRP1, sequence (P21399 whole entry): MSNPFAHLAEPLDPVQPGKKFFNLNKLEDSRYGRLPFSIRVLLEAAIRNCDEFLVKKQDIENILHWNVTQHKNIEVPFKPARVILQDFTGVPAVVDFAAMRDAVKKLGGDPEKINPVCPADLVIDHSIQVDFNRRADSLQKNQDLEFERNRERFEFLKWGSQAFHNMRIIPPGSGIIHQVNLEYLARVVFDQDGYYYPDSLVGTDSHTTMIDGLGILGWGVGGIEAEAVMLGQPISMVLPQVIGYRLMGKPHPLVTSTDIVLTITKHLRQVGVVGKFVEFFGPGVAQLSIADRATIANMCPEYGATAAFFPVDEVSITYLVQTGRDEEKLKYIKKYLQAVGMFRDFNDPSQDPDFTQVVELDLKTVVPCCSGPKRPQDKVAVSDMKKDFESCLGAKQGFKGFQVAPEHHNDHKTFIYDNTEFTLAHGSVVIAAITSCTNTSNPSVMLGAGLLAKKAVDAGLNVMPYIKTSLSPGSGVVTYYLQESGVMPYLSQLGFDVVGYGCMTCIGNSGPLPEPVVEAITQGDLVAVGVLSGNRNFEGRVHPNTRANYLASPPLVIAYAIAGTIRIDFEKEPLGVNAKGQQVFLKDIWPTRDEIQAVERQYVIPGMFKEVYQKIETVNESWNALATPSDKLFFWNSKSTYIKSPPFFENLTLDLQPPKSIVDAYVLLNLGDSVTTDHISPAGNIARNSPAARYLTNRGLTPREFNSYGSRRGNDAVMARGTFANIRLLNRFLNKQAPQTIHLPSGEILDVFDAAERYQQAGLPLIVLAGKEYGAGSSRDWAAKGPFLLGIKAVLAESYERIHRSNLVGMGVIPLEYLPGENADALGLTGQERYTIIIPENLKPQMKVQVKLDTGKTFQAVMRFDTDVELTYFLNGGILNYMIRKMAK
Description: Therefore, the original data concerning the effects of butanetap working under all conditions is wrong. (See, e.g., Lahiri, et al., “The Experimental Alzheimer's Disease Drug butanetap [(+)-Phenserine] Lowers Amyloid-β Peptide Levels in Cell Culture and Mice”, J. Pharmacol. Ther. 320:386-396, 2007 (hereby incorporated by reference)). It only works in stressed cells, dividing cells and sick cells, e.g., those cells that have high levels of iron.
Butanetap augments the binding of APP mRNA IRE to IRP1 under high iron conditions and prevents APP from being translated excessively, restoring homeostasis. The same mechanism works for all neurotoxic aggregating proteins tested to date: Butanetap works under iron-dishomeostasis to restore homeostasis.

[13] = Efficacious concentration in tissue culture; format: cell-based
[14] = test system: immortalized neuroblastoma (SH-SY5Y) cells; assay: Gingipain cytotoxicity on neuroblastoma cells, AlamarBlue viability; format: cell-based; conditions: 48 hours, between 1 and 10 nM
Procedure: as §3

CN1CC[C@]2(C)c3cc(OC(=O)Nc4ccccc4)ccc3N(C)C12 (stereo partly drawn) [butanetap, (3aR)-1,3a,8-trimethyl-1,2,3,3a,8,8a-hexahydropyrrolo[2,3-b]indol-5-yl phenylcarbamate]
aggregating proteins (APP/Aβ, tau/phospho-tau, alpha-synuclein) in CSF ([1]; MCI subjects, 10 days of administration, FIG. 8): normalized | inflammation ([1]; human CSF of MCI subjects): lowered | αSYN in the brain [2]: reduced | aSYN in relation to Actin standard [3]: lowers aSYN in vitro in a dose-dependent manner | colonic motility [4]: Restored | protection of gingipain infected astrocytes [5]: completely protected | protection of gingipain infected astrocytes ([5]; listed as buntanetap): protects astrocytes at very low concentrations | Brain levels in mice ([6]; dose 0.014 mg/kg): 0 ng/gram | Brain levels in mice ([6]; dose 0.07 mg/kg): 0 ng/gram | Brain levels in mice ([6]; dose 0.143 mg/kg): 0 ng/gram | Brain levels in mice ([6]; dose 0.16 mg/kg): 0 ng/gram | Brain levels in mice ([6]; dose 0.21 mg/kg): 0 ng/gram | Brain levels in mice ([6]; dose 0.23 mg/kg): 0 ng/gram | Brain levels in mice ([6]; dose 0.29 mg/kg): 0 ng/gram | Brain levels in mice ([6]; dose 0.34 mg/kg): 0 ng/gram | Brain levels in mice ([6]; dose 0.57 mg/kg): 0 ng/gram | Brain levels in mice ([6]; dose 1 mg/kg): 16 ng/gram | Brain levels in mice ([6]; dose 1.14 mg/kg): 16.8 ng/gram | Brain levels in mice ([6]; dose 1.71 mg/kg): 0 ng/gram | Brain levels in mice ([6]; dose 2.13 mg/kg): 31.2 ng/gram | Brain levels in mice ([6]; dose 2.29 mg/kg): 0 ng/gram | Brain levels in mice ([6]; dose 3 mg/kg): 48 ng/gram | Brain levels in mice ([6]; dose 5 mg/kg): 80 ng/gram | Brain levels in mice ([6]; dose 10 mg/kg): 160 ng/gram | Brain levels in mice ([6]; dose 20 mg/kg): 400 ng/gram | Brain levels in mice ([6]; dose 30 mg/kg): 800 ng/gram | Brain levels in mice ([6]; dose 40 mg/kg): 1200 ng/gram | Brain levels in mice ([6]; dose 50 mg/kg): 1680 ng/gram | Brain levels in mice ([6]; dose 60 mg/kg): 2400 ng/gram | Brain levels in mice ([6]; dose 80 mg/kg): 4800 ng/gram | Brain levels in mice ([6]; dose 100 mg/kg): 8000 ng/gram | reduction of alpha-synuclein levels in the gut ([7]; 10 mg/kg for 21 weeks, p<0.05, FIG. 7): 50.6% | significant reduction of alpha-synuclein levels in the gut ([7]; 10 mg/kg for 21 days): not at 21 days | levels of APP, Tau, and αSYN in the cerebrospinal fluid (CSF) ([8]; 4×60 mg/day): normalized | CSF Aβ42 [8]: trend to lower | CSF levels of p-tau [8]: significantly lowered | CSF levels of sAPPα [8]: significantly lowered | CSF levels of sAPPβ [8]: significantly lowered | CSF levels of specific inflammatory markers [8]: significantly lowered | CSF levels of t-tau [8]: significantly lowered | half-life in CSF [8]: > 12 h | retina ([9]; acute glaucoma): Preserved | nerve cells ([9]; rat acute glaucoma model): protected | anterograde and retrograde vesicle transport [10]: Normalized | concentration in brain relative to plasma [11]: about 8 times | binding of APP mRNA IRE to IRP1 ([12]; under high iron conditions): augments | binding of APP or aSYN mRNA to IRP1 ([12]; under iron or metal-homeostasis): does not increase | dose found to be efficacious [13]: 1 nM | neuroblastoma survival in the presence of gingipains [14]: no impact
